Patent US7880007B2, “Bicyclic substituted phenyl piperidine modulators of muscarinic receptors” (Vertex Pharmaceuticals Incorporated, priority 2004, dated 2011)

Legend:
Assay type in all cases: cell-based
M3 muscarinic receptor = molecular target: T1, M3 muscarinic receptor (Homo sapiens, UniProt P20309); assay: Functional mobilization of intracellular calcium (FLIPR), M3-CHO cells; settings: for Emax: 100% efficacy = maximum response obtained with the Carbachol control; for M3 Activity: M3-CHO cells, calcium mobilization (FLIPR)
T1 construct: expressed in transfected cells; host or cells: CHO (M3-CHO)
Summary of the method: (§1)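 Calcium mobilisation read by FLIPR over 60 s (ex 488/em 540 nm) in recombinant muscarinic CHO lines loaded with calcium dye plus 1 mM probenecid. Compounds tested as agonists alone, or as inhibitors against EC80 carbachol after 15 min pre-incubation or co-addition; 0.5% DMSO; efficacy scaled to carbachol maximal response.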

M2 muscarinic receptor = molecular target: T2, M2 muscarinic receptor (Homo sapiens, UniProt P08172); assay: Functional mobilization of intracellular calcium (FLIPR), M2-CHO cells; settings: for Emax: 100% efficacy = maximum response obtained with the Carbachol control; for M2 Activity: M2-CHO cells, calcium mobilization (FLIPR)
T2 construct: expressed in transfected cells; host or cells: CHO (M2-CHO)
T2 sequence (P08172 1-466): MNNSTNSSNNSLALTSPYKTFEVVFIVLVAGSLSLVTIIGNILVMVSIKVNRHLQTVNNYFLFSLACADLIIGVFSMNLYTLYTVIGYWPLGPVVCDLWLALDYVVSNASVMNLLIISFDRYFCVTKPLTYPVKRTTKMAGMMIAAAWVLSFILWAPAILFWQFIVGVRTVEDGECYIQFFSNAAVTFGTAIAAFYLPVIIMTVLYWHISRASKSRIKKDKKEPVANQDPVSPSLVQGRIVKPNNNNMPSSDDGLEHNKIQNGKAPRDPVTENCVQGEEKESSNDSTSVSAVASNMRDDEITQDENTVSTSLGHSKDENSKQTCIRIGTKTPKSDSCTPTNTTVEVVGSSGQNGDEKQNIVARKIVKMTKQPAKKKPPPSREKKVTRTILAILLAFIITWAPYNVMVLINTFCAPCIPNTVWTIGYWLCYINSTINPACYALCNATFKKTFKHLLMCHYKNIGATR
Summary of the method: as §1

M4 muscarinic receptor = molecular target: T3, M4 muscarinic receptor (Homo sapiens, UniProt P08173); assay: Functional mobilization of intracellular calcium (FLIPR), M4-CHO cells; settings: for Emax: 100% efficacy = maximum response obtained with the Carbachol control; for M4 Activity: M4-CHO cells, calcium mobilization (FLIPR)
T3 construct: expressed in transfected cells; host or cells: CHO (M4-CHO)
T3 sequence (P08173 1-479): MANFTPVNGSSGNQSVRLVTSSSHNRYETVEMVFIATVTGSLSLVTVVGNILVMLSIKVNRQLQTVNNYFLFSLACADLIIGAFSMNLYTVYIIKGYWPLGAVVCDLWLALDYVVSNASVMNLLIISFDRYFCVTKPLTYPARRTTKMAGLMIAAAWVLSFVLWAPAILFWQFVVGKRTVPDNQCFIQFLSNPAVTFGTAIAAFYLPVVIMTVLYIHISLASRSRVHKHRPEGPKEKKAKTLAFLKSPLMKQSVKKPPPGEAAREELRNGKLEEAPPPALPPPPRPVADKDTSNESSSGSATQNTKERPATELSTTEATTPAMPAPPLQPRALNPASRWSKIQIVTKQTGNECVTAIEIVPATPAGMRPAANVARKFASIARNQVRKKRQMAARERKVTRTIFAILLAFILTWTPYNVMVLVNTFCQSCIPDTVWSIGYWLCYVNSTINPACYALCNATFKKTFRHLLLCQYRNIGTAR
Summary of the method: as §1

M1 muscarinic receptor = molecular target: T4, M1 muscarinic receptor (Homo sapiens, UniProt P11229); assay: Functional mobilization of intracellular calcium (FLIPR), M1-CHO cells; settings: for Emax: 100% efficacy = maximum response obtained with the Carbachol control; for M1 Activity: M1-CHO cells, calcium mobilization (FLIPR)
T4 construct: expressed in transfected cells; host or cells: CHO (M1-CHO)
T4 sequence (P11229 1-460): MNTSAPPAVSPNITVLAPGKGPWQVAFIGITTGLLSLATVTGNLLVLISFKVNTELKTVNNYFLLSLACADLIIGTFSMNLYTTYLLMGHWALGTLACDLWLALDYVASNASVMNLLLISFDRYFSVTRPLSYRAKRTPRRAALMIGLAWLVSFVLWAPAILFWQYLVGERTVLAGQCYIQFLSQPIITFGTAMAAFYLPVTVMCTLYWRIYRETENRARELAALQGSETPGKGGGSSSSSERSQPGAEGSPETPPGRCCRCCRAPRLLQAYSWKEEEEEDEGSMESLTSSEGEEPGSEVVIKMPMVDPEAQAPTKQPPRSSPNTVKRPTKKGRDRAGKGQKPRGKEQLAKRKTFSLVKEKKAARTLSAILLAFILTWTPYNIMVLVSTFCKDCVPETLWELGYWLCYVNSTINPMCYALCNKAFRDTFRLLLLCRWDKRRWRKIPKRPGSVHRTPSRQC
Summary of the method: as §1

T1 sequence (P20309 whole entry): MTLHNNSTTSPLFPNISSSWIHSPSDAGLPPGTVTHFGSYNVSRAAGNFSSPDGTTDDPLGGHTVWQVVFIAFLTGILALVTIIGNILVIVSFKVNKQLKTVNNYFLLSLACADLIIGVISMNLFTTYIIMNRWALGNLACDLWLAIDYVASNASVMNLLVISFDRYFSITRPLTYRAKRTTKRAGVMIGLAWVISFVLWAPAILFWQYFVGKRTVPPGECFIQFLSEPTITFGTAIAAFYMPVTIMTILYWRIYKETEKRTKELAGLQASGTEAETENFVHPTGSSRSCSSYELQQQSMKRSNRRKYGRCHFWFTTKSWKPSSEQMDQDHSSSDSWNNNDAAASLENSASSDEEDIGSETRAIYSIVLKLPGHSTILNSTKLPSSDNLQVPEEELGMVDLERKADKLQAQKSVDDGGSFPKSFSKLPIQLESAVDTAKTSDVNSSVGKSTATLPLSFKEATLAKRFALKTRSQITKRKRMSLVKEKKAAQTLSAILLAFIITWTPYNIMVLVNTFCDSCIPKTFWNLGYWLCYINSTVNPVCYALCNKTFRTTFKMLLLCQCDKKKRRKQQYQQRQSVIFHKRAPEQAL

Compound	Emax (M3 muscarinic receptor)	M3 Activity (M3 muscarinic receptor)	Emax (M2 muscarinic receptor)	M2 Activity (M2 muscarinic receptor)	Emax (M4 muscarinic receptor)	M4 Activity (M4 muscarinic receptor)	Emax (M1 muscarinic receptor)	M1 Activity (M1 muscarinic receptor)
CCOC(=O)C(C)(C)Oc1ccccc1C1CCN([C@H]2C[C@H]3CC[C@H]2C3)CC1 [Compound 42]	< 25%	+ (activity was measured to be greater than 5.0 μM)	< 25%	+ (activity was measured to be greater than 5.0 μM)	< 25%	++ (activity was measured to be from 1.0 μM to 5.0 μM)	< 25%	+ (activity was measured to be greater than 5.0 μM)
CCOC(=O)N1CCC(N2CCC(c3cc(-c4ccc(S(C)(=O)=O)cc4)ccc3OC)CC2)CC1 [Compound 43]	25 to 100%	+ (activity was measured to be greater than 5.0 μM)	25 to 100%	+++ (activity was measured to be less than 1.0 μM)	25 to 100%	+++ (activity was measured to be less than 1.0 μM)	> 100%	+++ (activity was measured to be less than 1.0 μM)
COc1ccc(Cl)cc1C1(F)CCN(C[C@@H]2C[C@H]3C=C[C@H]2C3)CC1 [Compound 44]	< 25%	+ (activity was measured to be greater than 5.0 μM)	25 to 100%	+ (activity was measured to be greater than 5.0 μM)	25 to 100%	++ (activity was measured to be from 1.0 μM to 5.0 μM)	25 to 100%	+ (activity was measured to be greater than 5.0 μM)
Cc1ccc(-c2ccccc2C2CCN([C@H]3C[C@H]4CC[C@H]3C4)CC2)cc1 [Compound 45]	< 25%	+ (activity was measured to be greater than 5.0 μM)	< 25%	+ (activity was measured to be greater than 5.0 μM)	25 to 100%	+ (activity was measured to be greater than 5.0 μM)	< 25%	+ (activity was measured to be greater than 5.0 μM)
Cc1ccccc1C1CCN(CC2CC3C=CC2C3)CC1 (stereo not drawn) [Compound 46]	–	+ (activity was measured to be greater than 5.0 μM)	25 to 100%	+ (activity was measured to be greater than 5.0 μM)	25 to 100%	+++ (activity was measured to be less than 1.0 μM)	25 to 100%	++ (activity was measured to be from 1.0 μM to 5.0 μM)
CCCOc1ccccc1C1CCN([C@H]2C[C@H]3CC[C@H]2C3)CC1 [Compound 47]	< 25%	+ (activity was measured to be greater than 5.0 μM)	< 25%	+ (activity was measured to be greater than 5.0 μM)	25 to 100%	++ (activity was measured to be from 1.0 μM to 5.0 μM)	25 to 100%	+ (activity was measured to be greater than 5.0 μM)
COc1ccc(-c2ccc(F)cc2F)cc1C1CCN([C@H]2C[C@H]3CC[C@H]2C3)CC1 [Compound 48]	< 25%	+ (activity was measured to be greater than 5.0 μM)	< 25%	+ (activity was measured to be greater than 5.0 μM)	25 to 100%	+ (activity was measured to be greater than 5.0 μM)	25 to 100%	+ (activity was measured to be greater than 5.0 μM)
COc1cc(F)c(F)c(C2CCN(C3CCOCC3)CC2)c1 [Compound 49]	< 25%	+ (activity was measured to be greater than 5.0 μM)	< 25%	+ (activity was measured to be greater than 5.0 μM)	25 to 100%	+++ (activity was measured to be less than 1.0 μM)	25 to 100%	+ (activity was measured to be greater than 5.0 μM)
